Results on eight compounds are retold here after publication PMC10526139, “Molecular and Pharmacokinetic Aspects of the Acetylcholinesterase-Inhibitory Potential of the Oleanane-Type Triterpenes and Their Glycosides” (Biomolecules, 2023).

The term IC50 denotes the point on the concentration scale where inhibition reaches its midpoint.

One test deals with T1, AChE from electric eel type VI-S (Electrophorus electricus, UniProt O42275).
T1 construct: purchased Sigma Aldrich
T1 sequence (O42275 24-633): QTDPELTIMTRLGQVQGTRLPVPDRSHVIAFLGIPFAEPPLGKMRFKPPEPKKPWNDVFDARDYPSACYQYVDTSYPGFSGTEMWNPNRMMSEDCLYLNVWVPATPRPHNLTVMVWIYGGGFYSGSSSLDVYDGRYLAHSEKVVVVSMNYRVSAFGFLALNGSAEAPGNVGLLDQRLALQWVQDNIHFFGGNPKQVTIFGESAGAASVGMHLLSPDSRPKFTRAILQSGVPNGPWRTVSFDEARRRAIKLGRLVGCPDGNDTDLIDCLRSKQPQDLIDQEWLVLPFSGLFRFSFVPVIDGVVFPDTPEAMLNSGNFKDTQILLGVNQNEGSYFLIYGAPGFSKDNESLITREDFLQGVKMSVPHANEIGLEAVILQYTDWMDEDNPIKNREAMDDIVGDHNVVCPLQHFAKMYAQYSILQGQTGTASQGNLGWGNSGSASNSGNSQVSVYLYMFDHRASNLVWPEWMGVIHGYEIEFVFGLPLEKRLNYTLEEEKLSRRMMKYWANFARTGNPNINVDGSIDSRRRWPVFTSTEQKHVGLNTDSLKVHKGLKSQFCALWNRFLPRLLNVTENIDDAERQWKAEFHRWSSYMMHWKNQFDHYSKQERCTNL
Put plainly: TLC-bioautography assay towards AChE inhibition. It counts as biochemical.
Conditions: not given
The method, then: Six standards of oleanane-type triterpenes: arjunic acid, arjunolic acid, arjungenin, arjunglucoside I, sericic acid and arjunetin—purchased from Sigma Aldrich (St. Louis, MO, USA)—were prepared at the concentration of 1 mg/mL in double-distilled water: methanol (50:50 v/v) and they were applied separately at the surface of the aluminum normal phase 10 cm × 10 cm TLC plate (Silica gel 60 F254, Merck, Darmstadt, Germany) with an autosampler (Camag, Muttenz, Switzerland) as the 6 mm zones, distant from one another by 1.5 cm horizontally and 2 cm vertically. Every reference solution was applied as 4, 6, 8 and 10 µL volume bands on three TLC plates.
The TLC plates were later subjected to the enzymatic assay according to the previously published protocol, with some modifications.
As the TLC plate was not developed in a TLC solvent system but was used directly in the TLC bioautographic assay, the authors modified the previously published protocol and sprayed the TLC with the substrate (2-naphtyl acetate; Sigma Aldrich, St. Louis, […], USA) dissolved in distilled water at the quantity of 30 mg/20 mL. The TLC was dried in cold air and later the solution of the AChE enzyme (AChE from electric eel type VI-S, Sigma Aldrich, St. Louis, […], USA) dissolved in the aqueous solution of Tris-HCl buffer (pH 7.8; Sigma Aldrich, St. Louis, […], USA) with […] (500 mg/100 mL, Sigma Aldrich, St. Louis, […], USA) at the quantity of 3 U/mL was sprayed on the TLC plate and incubated at the temperature of 37 °C for the following 20 min in a humid incubator. In the next step, the Fast Blue B (Sigma Aldrich, St. Louis, […], USA) solution (0.615 mg/mL) was sprayed on the plate and visualized active zones as white spots against the violet background. The area of the discolored zones corresponded to the inhibitory strength of the respective zones.
Finally, the TLC plate was dried in the air and analyzed by a Camag TLC visualizer (Camag, Muttenz, Switzerland) under visible light. The peak areas of the discolored zones were automatically calculated by the WinCats program (version 1.4, Camag, Muttenz, Switzerland) and their size was compared to calculate the IC50 values that corresponded to the concentration of the standard giving the half maximum inhibition of the AChE enzyme.
As for `CC1(C)CC[C@]2(C(=O)O)CC[C@]3(C)C(=CC[C@@H]4[C@@]5(C)C[C@@H](O)[C@H](O)C(C)(C)[C@@H]5CC[C@]43C)[C@@H]2[C@@H]1O` [Arjunic acid], half-maximal inhibition (IC50) required 20.7 µM.
`CC1(C)CC[C@]2(C(=O)O)CC[C@]3(C)C(=CC[C@@H]4[C@@]5(C)C[C@@H](O)[C@H](O)[C@@](C)(CO)[C@@H]5CC[C@]43C)[C@@H]2[C@@H]1O` [Arjungenin]: the IC50 was 19.5 µM.
`CC1(C)CC[C@]2(C(=O)O[C@@H]3O[C@H](CO)[C@@H](O)[C@H](O)[C@H]3O)CC[C@]3(C)C(=CC[C@@H]4[C@@]5(C)C[C@@H](O)[C@H](O)[C@@](C)(CO)[C@@H]5CC[C@]43C)[C@@H]2[C@@H]1O` [Arjunglucoside I] had a half-maximal inhibitory concentration (IC50) of 13.2 µM.
The same measure, in the same setting: to `CC1(C)CC[C@]2(C(=O)O)CC[C@]3(C)C(=CC[C@@H]4[C@@]5(C)C[C@@H](O)[C@H](O)[C@@](C)(CO)[C@@H]5CC[C@]43C)[C@@H]2C1` [Arjunolic acid] belongs 16.2 µM.
In turn, `CC1(C)CC[C@]2(C(=O)O)CC[C@]3(C)C(=CC[C@@H]4[C@@]5(C)C[C@@H](O)[C@H](O)[C@](C)(CO)[C@@H]5CC[C@]43C)[C@@H]2[C@@H]1O` [Sericic acid] gave an IC50 of 16.4 µM.
As for `CC1(C)CC[C@]2(C(=O)O[C@@H]3O[C@H](CO)[C@@H](O)[C@H](O)[C@H]3O)CC[C@]3(C)C(=CC[C@@H]4[C@@]5(C)C[C@@H](O)[C@H](O)C(C)(C)[C@@H]5CC[C@]43C)[C@@H]2[C@@H]1O` [Arjunetin], the IC50 was 18.8 µM.

A further test concerns AChE.
Test: not given
Particulars: AChE inhibition; cited from earlier work.
In the case of `COc1ccc2c3c1O[C@H]1C[C@@H](O)C=C[C@@]31CCN(C)C2` [galantamine], the IC50 is […].
With `C[C@H]1[C@H](C)CC[C@]2(C(=O)O)CC[C@]3(C)C(=CC[C@@H]4[C@@]5(C)C[C@@H](O)[C@H](O)[C@@](C)(CO)[C@@H]5CC[C@]43C)[C@H]12` [asiatic acid], the IC50 was 15.05 ± 0.05 µM.
